Laboratory results as given in article PMC10110893, “[…]-derived synthetic cannabinoids inhibit T-type calcium channels with divergent effects on seizures in rodent models of epilepsy” (Frontiers in Physiology, 2023).

System: Scn1a +/- mouse model of Dravet syndrome
Assay: Spontaneous seizures and survival monitoring in Scn1a+/- mice
Type: in vivo
Procedure: Scn1a ^ +/− mice purchased from The Jackson Laboratory (stock 37107-JAX; Bar Harbour, United States) were maintained as a congenic line on a 129S6/SvEvTac background (129. Scn1a ^+/−). F1 mice were generated by crossing 129. Scn1a ^+/− mice with wild-type C57BL/6J mice (Jackson Laboratory stock no. 000664) and group housed. Scn1a genotype was determined as previously described ([Miller et al., 2014]).
On P18, male and female Scn1a ^ +/− mice were weaned and randomly assigned to treatment groups (untreated or SB2193) with n = 17–19 per group. For spontaneous seizure and survival experiments, SB2193 was administered sub-chronically via supplementation of the compound into chow to avoid stress associated with repeated i.p. injections. Chow was formulated at 5,000 mg/kg SB2193 in chow to provide target brain concentrations of 0.73 μM, with the daily oral dose based on the assumption that each mouse consumes approximately 3 g chow/day. Bodyweight of mice was monitored during the administration period to ensure consumption of chow. Animals in both treatment groups gained weight at an equivalent rate over the chow supplementation period (Supplementary Figure S1).
Continuous video recordings from 00:00 P23 to 24:00 P24 were made using a Samsung SCB-5003 days/night camera equipped with an infrared lens (Seoul, South Korea). The number of spontaneous generalised tonic-clonic seizures (GTCS) occurring over the 48 h recording period was quantified offline by a blinded observer. Statistical comparison was performed in GraphPad Prism using a Mann-Whitney U test as data were non-parametric. Treatment was continued to P30 to monitor survival of mice. Scn1a ^ +/− mice have a high premature mortality rate, with approximately 50% of animals surviving to P30 ([Miller et al., 2014]). We have observed substantial variability in the mortality rate across experimental cohorts which is difficult to explain and likely due to stochastic factors ([Anderson et al., 2020]; [Anderson et al., 2021]; [Anderson et al., 2022]). […]

## CCCCCn1cc(C(=O)N2CCN(C(=O)OC(C)(C)C)CC2)c2ccccc21 [SB2193]
5,000 mg/kg chow orally P18–P30
  survival of mice to P30: no effect
5,000 mg/kg chow orally from P18, 48 h recording P23-24, n = 17–19
  spontaneous seizure (GTCS) frequency vs control mice: did not decrease
SB2193-treated vs untreated chow, P18 to P30, n = 14
  bodyweight change: no effect of treatment
